In patent US7811760B2, “Vector and method for detecting the change in transcription amount” (priority 2006, dated 2010):

Assays:
[1] = target: T1, aryl hydrocarbon receptor (Rattus norvegicus, UniProt P41738, Q794H); test: Reporter gene assay in Neuro2a with pTHE60/Luc and pTHE60×3/Luc (SEQ ID No: 4); type: cell-based, SD-line rat; conditions: 1 nM and 10 nM TCDD; pTHE60/Luc versus pTHE60×3/Luc
T1 construct: The SD-line rat AhR gene-coding region was amplified from the reverse-transcribed sample by means of PCR; V5-His (C-terminal tag of vector pcDNA4/V5-His B); expressed in transfected cells; host or cells: mouse neuroblastoma Neuro2a, transient transfection with LIPOFECTAMINE 2000
T1 sequence (P41738 10-853 Q794H): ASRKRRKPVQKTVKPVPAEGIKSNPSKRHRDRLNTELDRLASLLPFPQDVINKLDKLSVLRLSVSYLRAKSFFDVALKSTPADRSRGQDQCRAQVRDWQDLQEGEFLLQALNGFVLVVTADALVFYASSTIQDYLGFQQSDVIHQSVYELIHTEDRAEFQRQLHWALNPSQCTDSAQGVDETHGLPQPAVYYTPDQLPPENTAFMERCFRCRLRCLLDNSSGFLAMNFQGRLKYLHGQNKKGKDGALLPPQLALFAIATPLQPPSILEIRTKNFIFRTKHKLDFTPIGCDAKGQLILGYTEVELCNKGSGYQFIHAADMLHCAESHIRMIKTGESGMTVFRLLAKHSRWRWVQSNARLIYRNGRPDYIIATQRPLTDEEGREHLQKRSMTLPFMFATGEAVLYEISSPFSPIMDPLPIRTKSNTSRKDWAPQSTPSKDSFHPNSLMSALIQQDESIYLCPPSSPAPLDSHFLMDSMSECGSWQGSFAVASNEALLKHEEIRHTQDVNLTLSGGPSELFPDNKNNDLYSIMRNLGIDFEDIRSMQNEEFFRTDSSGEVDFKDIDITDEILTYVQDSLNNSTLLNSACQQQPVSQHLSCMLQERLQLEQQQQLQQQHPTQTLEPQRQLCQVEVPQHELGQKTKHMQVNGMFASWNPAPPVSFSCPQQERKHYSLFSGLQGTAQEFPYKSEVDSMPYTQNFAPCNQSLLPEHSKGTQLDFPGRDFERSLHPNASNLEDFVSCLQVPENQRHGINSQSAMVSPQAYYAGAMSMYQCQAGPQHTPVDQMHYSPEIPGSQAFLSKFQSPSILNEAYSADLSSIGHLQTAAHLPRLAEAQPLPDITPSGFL
Protocol: In Example 9, the region of SEQ ID No: 4 was used as the TCDD-responsive region in the TH transcriptional regulatory region. The region of SEQ ID No: 4 was amplified by PCR using the region of SEQ ID No: 3 as a template and using the following primers: Forward primer: 5′-[…]-3′ (SEQ ID No: 29); and Reverse primer: 5′-[…]-3′ (SEQ ID No: 30). Pyrobest DNA polymerase was used in the PCR. Recognition sequences for restriction enzymes KpnI (for forward primer) and NheI (for reverse primer) were added to the terminal of the respective primers, for the purpose of facilitating incorporation of the PCR amplified fragment into the vector. The terminal of the region of SEQ ID No: 4 amplified by PCR was phosphorylated with 5′-polynucleotide kinase (Takara Bio Inc.), and then, the regions of SEQ ID No: 4 were ligated in tandem with each other by using a ligation kit. The ligated DNA fragments were digested with restriction enzymes KpnI and NheI, and subjected to agarose gel electrophoresis. DNA fragment consisting of a single copy of the region of SEQ ID No: 4 and DNA fragment consisting of three copies of the regions of SEQ ID No: 4 linked in tandem were excised from the gel based on their molecular weight, and purified with a QIAQUICK Gel Extraction Kit. […]

[2] = system: ligand-dependent transcription factors (AhR, ER, and AR); test: Reporter gene (luciferase) assay in Neuro2a cells carrying PGV-THp03 (SEQ ID No: 2); type: cell-based, mouse; conditions: 10 nM, 30 hours, PGV-THp03, AhR-introduced Neuro2a
Protocol: A vector (PGV-THp03) containing the upstream region (SEQ ID No: 2) ranging from about −300 to 0 position of the TH gene-coding region, which was prepared in Example 4, was used. Neuro2a was used as the cell.
Two kinds of vectors, pcDNA4-rAhR (Example 1) and pcDNA4/V5-His/lacZ (Invitrogen), were introduced into Neuro2a, together with PGV-THp03. pcDNA4-rAhR was introduced for constitutive expression of the SD-line rat AhR gene (SEQ ID No: 10) in the cell, and pcDNA4/V5-His/lacZ was introduced for normalization of the vector transfection efficiency.
The vectors were introduced into the cell by using LIPOFECTAMINE 2000 (Invitrogen). The cell was cultured on a 24-well plate, and the operation was performed according to the manual of Invitrogen. A total of […] of vectors (0.4 μg of PGV-THp03, 0.2 μg of pcDNA4-rAhR, and 0.2 μg of pcDNA4/V5-His/lacZ) suspended in 50 μl of OPTI-MEM medium and 2 μl of LIPOFECTAMINE 2000 suspended in 50 μl of OPTI-MEM medium were mixed, and incubated at room temperature for 20 minutes to form nucleic acid/LIPOFECTAMINE 2000 complex. The obtained suspension containing the complex was added to Neuro2a cell culture, which has been previously cultured overnight in 500 μl of DF1:1 medium (containing 10% fetal calf serum) (0.8×10^5 cells were seeded on previous day), to allow incorporation of the vectors into the cell. The cell was cultured additionally for 24 hours after transfection, for the purpose of improvement in vector incorporation efficiency and expression of the protein derived from the introduced vectors.
As the test substances, vinclozolin (10 μM), dimethyl phthalate (10 μM), benzopyrene (1 μM), and dioxin (TCDD) (10 nM) were used. After the transfection and the additional incubation for 24 hours, the medium was replaced with a fresh medium containing any one of the test substances, and the cell was cultured additionally for 30 hours. After 30 hours, the medium was removed from the 24-well plate, and the cell was washed with phosphate buffer twice. 100 μl of a protein extraction solution (manufactured by TOYO B-NET) was added to each well, and the cell suspension was stirred gently at room temperature for 15 minutes and then frozen at −80° C. The frozen solution was thawed at room temperature, and the resulting solution was recovered in a tube and diluted ten times with a protein extraction reagent containing 1 mg/ml bovine serum albumin luciferase and β-galactosidase activities in the diluted solution were measured, and the expression amount of the reporter gene was calculated as a relative luminescence intensity per 1 ng of β-galactosidase per second (RLU/sec/ng β-galactosidase).

In the case of Clc1cc2c(cc1Cl)Oc1cc(Cl)c(Cl)cc1O2 [TCDD, 2,3,7,8-tetrachlorodibenzo-p-dioxine], the “activity of the test substance on transcriptional regulation, by number of regions of SEQ ID No: 4” value [1] is reported as “increased according to the increase in the number of the regions incorporated into the vector” and the luciferase activity increase [2] is reported as “approximately 1.4 times”.
